Assay results published in paper PMC6270921, “Study on the Cytotoxic Activity of Drimane Sesquiterpenes and Nordrimane Compounds against Cancer Cell Lines” (Molecules, 2014).

Assays:
[1] = tested on: panel of cancer cell lines; experiment: Cytotoxicity against a panel of cancer cell lines (summary); assay type: cell-based; details: Homo sapiens; summary statement of the conclusions
Method: (§1) The cytotoxicity of compounds 1–12 was evaluated in vitro against different cancer cell lines: MCF-7 breast cancer, DU-145 and PC-3 human prostate cancer, and one non-tumor cell line, human colon epithelial cells CCD 841 CoN (CoN). […] Four serial dilutions (from 12.5 to 100 μM) for each sample were evaluated in triplicate.
(§2) The sulforhodamine B assay was used according to the method of Skehan et al.. Briefly, the cells were set up at 3 × 10^3 cells per well of a 96 200 μL well, flat-bottomed, microplate. Cells were incubated at 37 °C in a humidified 5% CO2/95% air mixture and treated with the compounds at different concentrations for 72 h. At the end of drug exposure, cells were fixed with 50% trichloroacetic acid at 4 °C. After washing with water, cells were stained with 0.1% sulforhodamine B (Sigma-Aldrich, St. Louis, MO, USA), dissolved in 1% acetic acid (50 μL/well) for 30 min, and subsequently washed with 1% acetic acid to remove unbound stain. Protein-bound stain was solubilized with 100 μL of 10 mM unbuffered Tris base, and the cell density was determined using a […] plate reader (wavelength 540 nm). Values shown are the mean ± SD of three independent experiments in triplicate. The software used to calculate the IC50 values was GraphPad (GraphPad Software, San Diego, CA, USA).

[2] = tested on: PC-3 prostate cancer cell line; experiment: Cell viability, sulforhodamine B assay; assay type: cell-based; details: Homo sapiens, 72 h exposure, dilutions 12.5 to 100 μM, read-out: Cytotoxicity IC50, PC-3
Method: as §1
(§3) The experimental cell cultures were obtained from the American Type Culture Collection (Rockville, MD, USA). MCF-7 cells (breast cancer cell line), PC-3 and DU-145 (prostate cancer cell lines), and human colon epithelial cells CCD 841 CoN (non-tumoral cell line) were grown in Dulbecco’s modified Eagle’s medium (DMEM) containing 10% FCS, 100 U/mL penicillin, 100 μg/mL streptomycin, and 1 mM glutamine. Cells were seeded into 96 well microtiter plates in 100 μL at a plating density of 5 × 10^3 cells/well. After 24 h incubation at 37 °C under a humidified 5% CO2 atmosphere to allow cell attachment, the cells were treated with different concentrations of drugs and incubated for 72 h under the same conditions. Stock solutions of compounds were prepared in ethanol and the final concentration of this solvent was kept constant at 1%. Control cultures received 1% ethanol alone.
as §2

[3] = tested on: MCF-7 breast cancer cell line; experiment: Cell viability, sulforhodamine B assay; assay type: cell-based; details: Homo sapiens, MCF7, 72 h exposure, dilutions 12.5 to 100 μM, read-out: Cytotoxicity IC50, MCF-7
Method: as §1, §3, §2

[4] = Cell viability, sulforhodamine B assay; assay type: cell-based; details: human, CCD 841 CoN colon epithelial cells (non-tumoral cell line), 72 h exposure, dilutions 12.5 to 100 μM, non-tumor cell line, read-out: Cytotoxicity IC50, CoN
Method: as §1, §3, §2

[5] = tested on: DU-145 prostate cancer cell line; experiment: Cell viability, sulforhodamine B assay; assay type: cell-based; details: Homo sapiens, 72 h exposure, dilutions 12.5 to 100 μM, read-out: Cytotoxicity IC50, DU145
Method: as §1, §3, §2

PC-3 cells = experiment: Morphological changes, phase contrast microscope; assay type: cell-based, human; details: PC-3, 50 μM compound for 24 h
Method: (§4) First, the appearance of morphological changes in the cells treated with 50 μM compound for 24 h was analyzed.

MCF-7 cells = experiment: Morphological changes, phase contrast microscope; assay type: cell-based, human; details: MCF-7, 50 μM compound for 24 h
Method: as §4

CoN cells = experiment: Morphological changes, phase contrast microscope; assay type: cell-based, human; details: 50 μM compound for 24 h
Method: as §4

## CC1(C)CCC[C@]2(C)[C@@H](C=O)C(C=O)=CC[C@@H]12 [Compound 1, polygodial]
[1]
  IC50: < 200 µM
[2]
  IC50: 89.2 ± 6.8 µM
[3]
  IC50: 93.7 ± 9.1 µM
[4]
  IC50 at 72 h: > 200 µM
[5]
  IC50: 71.4 ± 8.5 µM
PC-3 cells
  morphological changes of cells: severely distorted
MCF-7 cells
  morphological changes of cells: severely distorted
CoN cells
  morphological changes of cells: severely distorted
